For orientation: IC50 means the concentration at which inhibition is half-maximal. A lower IC50 goes with higher potency.

The results in this text go back to publication PMC11480993, “Combining Data-Driven and Structure-Based Approaches in Designing Dual PARP1-BRD4 Inhibitors for Breast Cancer Treatment” (Journal of Chemical Information and Modeling, 2024).

In one experiment the target is PARP1 (Homo sapiens, UniProt P09874). The experiment is described as follows: In vitro PARP1 enzymatic activity (ELISA, biotinylated NAD+, luminescence). In kind it is biochemical. As for the experimental part: The inhibition of the tested compounds on PARP1 enzymatic activity was determined by ELISA in 96-well plates. Each well was precoated with histone (20 μg/mL) diluted in 100 μL of PBS buffer (10 mM NaH2PO4, 100 mM Na2HPO4, 150 mM NaCl, pH 7.4) by incubation at 4 °C overnight. […] The reaction was initiated by the addition of 20 μL of PARP1 (50 ng/well) at 30 °C for 1 h. Then the reaction solution was added to 50 μL of streptavidin conjugated HRP. The assay was performed at 30 °C for an additional 30 min. Finally, 100 μL of solution (H2O2 and luminol in citrate buffer 0.1 M, pH 5.4) was added and luminescent signal was measured using a multiwell spectrophotometer (Molecular Devices SpectraMax M5 microplate reader).
On the technique in general: In an ELISA, binding on a coated surface is turned into a signal by an enzyme label.

Another experiment has as its target BRD4 (Homo sapiens, UniProt O60885). The experiment is described as follows: BRD TR-FRET assay, BRD4. It counts as binding. As to the method: (§1) The assay was performed by TR-FRET technology using a BRD and its corresponding ligand (BET). The TR-FRET signal from the assay is correlated with the amount of ligand binding to the bromodomain. All of the binding reactions were conducted at room temperature. The 20 μL reaction mixture in Assay Buffer contains either bromodomains, BET Ligand, and the indicated amount of inhibitor. For the negative control (blank), 5 μL of the assay buffer was added instead of the BET ligand. The reaction mixture was incubated for 120 min. After the incubation with the ligand, the TR-FRET signal was measured using a Tecan Infinite M1000 plate reader.
(TR-FRET usually uses a lanthanide donor and a delayed reading to cut background.)

The target in the next experiment is BRD1 (Homo sapiens, UniProt O95696). The experiment is described as follows: BRD TR-FRET assay, BRD1. It counts as binding. As to the method:
as §1

The next experiment concerns the target BRD2 (Homo sapiens, UniProt P25440). In words: BRD TR-FRET assay, BRD2. In kind it is binding. As to the method: as §1
The target in a further experiment is BRD3 (Homo sapiens, UniProt Q15059). The experiment is described as follows: BRD TR-FRET assay, BRD3. It counts as binding. As to the method:
as §1

The next experiment addresses BRD4 BD2 (Homo sapiens, UniProt O60885). In words: BRD TR-FRET assay, BRD4 BD2. It counts as binding. As for the experimental part: as §1
Experiment [1] has as its system MCF-7 cells. In words: Cell viability (MTT), MCF-7. It counts as cell-based. Conditions: Homo sapiens, MCF7, 96 h; 4-day treatment, wild-type BRCA. As to the method:
(§2) MDA-MB-231, MDA-MB-436, and MCF-7 cells were seeded into 96-well plates with the number of 5 × 10^3 in each cell and allowed to incubate for 24 h. Subsequently, various concentrations of the test compounds (ranging from 100 to 0.78 μM with twice gradient dilution) were introduced. After 4 days of incubation, MTT solution was applied, and the cells were incubated for an additional 4 h. Following the removal of the supernatant, the violet crystals were dissolved in 200 μL of DMSO, and the absorbance was measured at 570 nm.

The next experiment concerns MDA-MB-231 cells. The experiment is described as follows: Cell viability (MTT), MDA-MB-231. In kind it is cell-based. Conditions: Homo sapiens, MDA-MB-231, 96 h; 4-day treatment, wild-type BRCA. As to the method:
as §2

Experiment [2] has as its system L02 (normal human liver cell). In words: Cytotoxicity against non-tumor cells, L02. In kind it is cell-based. Conditions: 96 h, 4-day treatment. The source says:
To further establish HF4’s advantage, we employed a web-based in silico cytotoxicity prediction tool (https://www.way2drug.com/clc-pred/index.php), encompassing the prediction against 391 tumor and 47 normal human cell lines,[47] to predict the cytotoxicity of HF4 against nontumor cell lines. […] The absence of nontumor cell lines among the top-ranked ones indicates a limited impact on normal cell line. When threshold of ≥0.15 was applied, among 50 predictions, only a single normal cell line (HEK293) was present in the list, with a predicted probability value below 0.2. We further reinforced the safety profile of HF4 by conducting experimental safety assessments on two normal cell lines. […] In summary, we conducted both computational safety predictions and experimental evaluations on normal cell lines to strengthen the assurance of HF4’s safety profile.
Cytotoxicity of HF4 against non-tumor cells
Figure S6. Cytotoxicity of HF4 against non-tumor cells during a 4-day treatment.
(1 picture or pasted object on this page, not shown here)

In experiment [3] the test system is MCF-7 cells. The experiment is described as follows: Colony formation assay. In kind it is cell-based. Conditions: seven-day exposure. As to the method: The cells were placed in a 6-well plate at a density of approximately 500 cells per well and allowed to incubate for 24 h. Subsequently, the cells were exposed to the specified concentrations of test compounds and a control vehicle for a duration of 7 days. Following this treatment period, the cells were fixed using a 4% formaldehyde solution, stained with crystal violet, and then imaged.

Experiment [4] deals with MCF-7 cells. In words: Cell apoptosis detection (Annexin V-FITC/PI flow cytometry). In kind it is cell-based. Conditions: 2 μM, MCF-7, dose-dependent. As for the experimental part: Cell apoptosis was assessed using the Annexin V-FITC/PI apoptosis detection kit. Following a 24 h treatment, cells were harvested and rinsed with PBS. Subsequently, the gathered cells were stained in accordance with the manufacturer’s guidelines and analyzed using BD FACSCelesta flow cytometry (New York, USA). FlowJo_V10 software was employed for data analysis.

For another experiment, the system named is Bcl-2. The experiment is described as follows: Western blot, Bcl-2 in MCF-7 cells. It counts as cell-based. Conditions: MCF-7, 48 h, dose-dependent. As for the experimental part:
(§3) Following a 48 h treatment, cellular proteins were extracted using RIPA cell lysis buffer containing protease and phosphatase inhibitor cocktail. The protein concentration was assessed by using a BCA assay. Subsequently, equal amounts of these proteins were loaded onto an SDS-PAGE gel and transferred onto a PVDF membrane. The protein-loaded membrane was then blocked using a commercial blocking solution (Beyotime, China) and sequentially incubated with primary and secondary antibodies. Protein bands were visualized using an ECL chemiluminescence kit and quantified using ImageJ software.
Background: In western blotting, separated proteins are transferred to a membrane and probed.

In the next experiment the test system is Caspase 3. The experiment is described as follows: Western blot, Caspase 3 in MCF-7 cells. In kind it is cell-based. Conditions: MCF-7, 48 h, dose-dependent. As for the experimental part: as §3
The next experiment concerns cleaved Caspase 3. The experiment is described as follows: Western blot, cleaved Caspase 3 in MCF-7 cells. It counts as cell-based. Conditions: MCF-7, 48 h, dose-dependent. As for the experimental part: as §3
The subject of the next experiment is γH2AX. In words: Western blot, γH2AX in MCF-7 cells. It counts as cell-based. Conditions: MCF-7, 48 h. As for the experimental part:
as §3

The test system of experiment [5] is MCF-7 cells. In words: Alkaline comet assay. It counts as cell-based. Conditions: 4 and 8 μM, 48 h, MCF-7, compared to control. As for the experimental part:
The Alkaline comet assay was executed in accordance with the manufacturer’s instructions. Following a 48 h treatment period, cells were harvested and combined with low melting point agarose. The resulting mixture was layered onto slides coated with agarose as a normal melting point agarose. Subsequently, the cells on the slides were lysed overnight at 4 °C and then unwound in an alkaline unwinding solution for 30 min at room temperature. Following electrophoresis, the samples were neutralized and stained with propidium iodide. The outcomes were visualized using a confocal microscope (Nikon A1 HD25), with three random images captured from each slide.

Molecules are shown by their SMILES. Read-outs that look alike come from different tables or passages of the source.

Sequence of PARP1 (P09874 whole entry): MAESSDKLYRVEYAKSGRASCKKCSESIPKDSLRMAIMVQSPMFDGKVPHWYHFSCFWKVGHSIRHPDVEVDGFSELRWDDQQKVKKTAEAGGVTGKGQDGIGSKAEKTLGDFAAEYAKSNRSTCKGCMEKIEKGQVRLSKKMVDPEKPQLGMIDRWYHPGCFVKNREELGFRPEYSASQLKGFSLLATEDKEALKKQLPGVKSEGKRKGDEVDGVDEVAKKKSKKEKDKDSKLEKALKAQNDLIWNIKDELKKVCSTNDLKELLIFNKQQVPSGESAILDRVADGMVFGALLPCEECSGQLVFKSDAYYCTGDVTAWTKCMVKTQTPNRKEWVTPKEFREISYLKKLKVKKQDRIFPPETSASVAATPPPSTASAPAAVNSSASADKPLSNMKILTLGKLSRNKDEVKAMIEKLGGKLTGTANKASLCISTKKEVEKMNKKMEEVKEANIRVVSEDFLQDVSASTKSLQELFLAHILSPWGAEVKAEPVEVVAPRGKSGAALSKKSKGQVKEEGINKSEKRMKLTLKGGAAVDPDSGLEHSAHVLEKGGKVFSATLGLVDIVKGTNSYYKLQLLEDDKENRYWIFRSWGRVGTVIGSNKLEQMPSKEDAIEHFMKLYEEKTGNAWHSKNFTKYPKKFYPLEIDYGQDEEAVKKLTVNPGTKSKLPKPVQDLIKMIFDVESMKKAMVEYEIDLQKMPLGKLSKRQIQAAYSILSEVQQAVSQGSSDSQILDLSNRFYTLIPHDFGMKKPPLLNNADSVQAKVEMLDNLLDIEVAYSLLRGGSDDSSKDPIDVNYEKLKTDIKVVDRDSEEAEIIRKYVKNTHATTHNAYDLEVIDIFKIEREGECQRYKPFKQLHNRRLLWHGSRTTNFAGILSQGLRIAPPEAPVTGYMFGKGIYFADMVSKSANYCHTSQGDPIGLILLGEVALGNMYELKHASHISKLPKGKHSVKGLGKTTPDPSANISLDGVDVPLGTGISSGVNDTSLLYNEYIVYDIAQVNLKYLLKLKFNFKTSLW
Sequence of BRD2 (P25440 whole entry): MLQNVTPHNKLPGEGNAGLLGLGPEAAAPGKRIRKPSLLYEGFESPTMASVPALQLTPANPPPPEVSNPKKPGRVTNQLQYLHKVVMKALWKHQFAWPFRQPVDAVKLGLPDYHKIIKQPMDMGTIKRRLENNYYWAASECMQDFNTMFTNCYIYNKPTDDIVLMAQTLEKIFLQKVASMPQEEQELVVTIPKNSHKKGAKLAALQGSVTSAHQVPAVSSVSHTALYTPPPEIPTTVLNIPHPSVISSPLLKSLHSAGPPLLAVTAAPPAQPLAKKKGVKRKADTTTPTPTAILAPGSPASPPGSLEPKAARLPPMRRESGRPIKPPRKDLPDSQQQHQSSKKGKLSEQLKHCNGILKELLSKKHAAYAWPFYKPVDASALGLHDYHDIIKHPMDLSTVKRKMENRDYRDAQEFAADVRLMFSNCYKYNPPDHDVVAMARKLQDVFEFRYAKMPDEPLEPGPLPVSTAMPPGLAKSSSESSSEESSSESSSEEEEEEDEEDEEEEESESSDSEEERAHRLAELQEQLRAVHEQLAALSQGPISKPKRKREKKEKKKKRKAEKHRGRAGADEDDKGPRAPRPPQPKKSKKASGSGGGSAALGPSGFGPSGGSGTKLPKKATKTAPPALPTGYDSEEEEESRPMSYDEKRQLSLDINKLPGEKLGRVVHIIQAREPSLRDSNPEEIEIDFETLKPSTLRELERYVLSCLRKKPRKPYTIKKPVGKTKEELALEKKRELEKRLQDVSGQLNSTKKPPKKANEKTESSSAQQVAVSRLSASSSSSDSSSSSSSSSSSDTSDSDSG
Sequence of BRD3 (Q15059 whole entry): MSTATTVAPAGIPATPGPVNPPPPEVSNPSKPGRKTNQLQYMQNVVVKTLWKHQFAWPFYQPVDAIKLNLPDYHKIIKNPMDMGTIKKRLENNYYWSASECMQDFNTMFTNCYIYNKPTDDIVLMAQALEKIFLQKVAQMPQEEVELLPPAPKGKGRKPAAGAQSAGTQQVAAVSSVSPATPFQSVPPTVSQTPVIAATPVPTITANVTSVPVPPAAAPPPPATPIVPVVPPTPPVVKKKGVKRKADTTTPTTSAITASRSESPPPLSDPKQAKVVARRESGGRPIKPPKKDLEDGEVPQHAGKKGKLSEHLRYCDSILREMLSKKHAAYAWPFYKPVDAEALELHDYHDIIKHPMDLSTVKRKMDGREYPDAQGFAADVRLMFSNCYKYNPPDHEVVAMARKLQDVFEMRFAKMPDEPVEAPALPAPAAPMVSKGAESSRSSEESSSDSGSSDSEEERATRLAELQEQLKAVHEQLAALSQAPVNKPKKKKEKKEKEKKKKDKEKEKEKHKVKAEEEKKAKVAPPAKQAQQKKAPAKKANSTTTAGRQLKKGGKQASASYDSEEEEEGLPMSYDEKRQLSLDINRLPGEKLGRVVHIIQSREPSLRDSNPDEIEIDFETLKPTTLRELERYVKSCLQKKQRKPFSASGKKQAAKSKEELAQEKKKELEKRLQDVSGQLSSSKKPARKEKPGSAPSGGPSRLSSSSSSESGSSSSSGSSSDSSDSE
Sequence of BRD1 (O95696 whole entry): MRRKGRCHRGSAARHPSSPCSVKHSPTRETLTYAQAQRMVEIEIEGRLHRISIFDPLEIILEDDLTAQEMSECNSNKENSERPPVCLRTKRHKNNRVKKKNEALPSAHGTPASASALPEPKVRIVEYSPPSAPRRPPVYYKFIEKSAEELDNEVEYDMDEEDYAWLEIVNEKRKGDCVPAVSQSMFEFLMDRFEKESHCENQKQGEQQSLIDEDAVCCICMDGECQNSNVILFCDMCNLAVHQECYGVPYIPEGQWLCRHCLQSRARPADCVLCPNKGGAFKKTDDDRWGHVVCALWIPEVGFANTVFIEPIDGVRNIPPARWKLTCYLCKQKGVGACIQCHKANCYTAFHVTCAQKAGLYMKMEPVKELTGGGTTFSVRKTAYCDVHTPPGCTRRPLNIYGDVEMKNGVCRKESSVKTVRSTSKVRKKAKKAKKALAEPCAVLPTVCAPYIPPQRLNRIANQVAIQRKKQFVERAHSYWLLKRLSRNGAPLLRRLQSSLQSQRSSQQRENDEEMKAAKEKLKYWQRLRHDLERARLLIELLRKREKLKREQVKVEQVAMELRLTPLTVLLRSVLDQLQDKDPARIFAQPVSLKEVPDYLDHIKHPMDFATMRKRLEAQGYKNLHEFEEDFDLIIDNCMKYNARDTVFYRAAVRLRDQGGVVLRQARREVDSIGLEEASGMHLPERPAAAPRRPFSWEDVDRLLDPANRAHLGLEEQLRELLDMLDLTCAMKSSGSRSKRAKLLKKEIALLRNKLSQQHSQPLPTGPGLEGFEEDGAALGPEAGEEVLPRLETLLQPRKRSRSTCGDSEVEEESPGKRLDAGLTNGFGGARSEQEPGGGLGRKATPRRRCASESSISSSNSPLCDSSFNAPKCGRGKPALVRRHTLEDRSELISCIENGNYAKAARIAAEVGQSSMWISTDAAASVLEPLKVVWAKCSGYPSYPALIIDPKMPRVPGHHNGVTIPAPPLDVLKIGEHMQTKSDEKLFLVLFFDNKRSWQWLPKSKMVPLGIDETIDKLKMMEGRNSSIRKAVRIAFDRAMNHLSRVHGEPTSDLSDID

Consider `CCc1cc2cc(NS(=O)(=O)c3ccc(F)c(C)c3)ccc2[nH]c1=O` [HF4, N-(3-ethyl-2-oxo-1,2-dihydroquinolin-6-yl)-4-fluoro-3-methylbenzenesulfonamide], for which the IC50 on PARP1 is 2020 ± 683 nM; against PARP1 (value of the text) it was about 2000 nM; on BRD4, 1210 ± 324 nM; at BRD4 (value of the text) it was 1200 nM; against BRD1, 55600 ± 13900 nM; at BRD2, 6830 ± 2200 nM. The IC50 was found to be 4790 ± 1360 nM against BRD3; 801 ± 238 nM against BRD4 BD2; 2100 nM with MCF-7 cells [1]; 2200 nM in the experiment with MDA-MB-231 cells; 26300 ± 6200 nM in [2]. The “decrease in effectiveness against PARP1, tricyclic to bicyclic scaffold” value on PARP1 (HF4 vs HF1) is listed as “approximately 20 fold”. Moreover, the “ligand efficiency index against PARP1” value at PARP1 (pIC50 divided by HAC, HAC = 25) was 0.23. Besides, the “ligand efficiency index against BRD4” value on BRD4 (pIC50 divided by HAC, HAC = 25) was found to be 0.24. Also, the “reduction in capacity to inhibit BRD4 relative to PFI-1” value on BRD4 (vs PFI-1) is “around 5 fold”. The colony formation entry with MCF-7 cells [3] (2 μM) is reported as “marked decline in colony formation”; with MCF-7 cells [3] (8 μM), “nearly no visible colonies”. Also, the apoptotic cells result in the experiment with MCF-7 cells [4] was “substantial increase in apoptotic cells”. For the same molecule, the Bcl-2 expression result with Bcl-2 was “significantly downregulated”. For the same molecule, the “Caspase 3 expression” value in the experiment with Caspase 3 is recorded as “significantly downregulated”. The “cleaved Caspase 3 expression” value in the experiment on cleaved Caspase 3 is listed as “upregulating”. In addition, the “levels of γH2AX” value with γH2AX was “dose-dependent upregulation”. In addition, the “DNA damage (comet tail length, percentage of damaged DNA)” value in the experiment on MCF-7 cells [5] is “increase in both tail length and the percentage of damaged DNA”.
